Laboratory results published in patent publication US4517181A, “Mammalian PGRF” (The Salk Institute for Biological Studies, priority 1982, dated 1985).

Assays:
[1] = test system: pituitary growth hormone release (serum ir-GH); assay: in vivo release of pituitary growth hormone after one single intravenous injection in normal rats; design: species or system rat; settings: for serum ir-GH: rat
Text: In addition to the in vitro tests for secretion of growth hormone, in vivo experiments were also run by injecting the synthetic peptide into normal male rats about 200 g. body weight, anesthetized with pentobarbital.

[2] = test system: cells of rat pituitary glands; assay: in vitro GH release, rat pituitary cell monolayer culture bioassay (ir GH by radioimmunoassay); type: cell-based; settings: for GH secretion in vitro % of controls: Table I
Procedure: To determine the effectiveness of the peptides to promote the release of growth hormone, in vitro assays are carried out using synthetic PGRF (1-40) of Example II in side-by-side comparison with equimolar concentrations of the extracted and purified native PGRF (1-40) and of a GRF Reference Standard having a known effectiveness to promote the release of growth hormone from pituitary cells. The GRF Reference standard is described and defined in Brazeau, et al., Endocrinology, Vol. 110, A538(1982) and is an amount of a preparation of rat hypothalamic origin that produces a half-maximal response in terms of GH release in a pituitary cell monolayer bioassay. Cultures are used which include cells of rat pituitary glands removed some four to five days previously. Both cultures of a defined standard medium and cultures which are considered optimal for the secretion of growth hormone are used for the comparative testing, in the general manner described in Brazeau, et al. Regulatory Peptides, 1, 255, 1981. Incubation with the substance to be tested is carried out for 3 to 4 hours, and aliquots of the culture medium are removed and processed to measure their contents in inmunoreactive GH(ir GH) by a well-characterized radioimmunoassay.
The in vitro assays described in Example VII are repeated using Native PGRF(1-40) and Native PGRF(1-44) and the results are set forth in following Table III: […]

## CC[C@H](C)[C@H](NC(=O)[C@H](C)NC(=O)[C@H](CC(=O)O)NC(=O)[C@H](C)NC(=O)[C@@H](N)Cc1ccc(O)cc1)C(=O)N[C@@H](Cc1ccccc1)C(=O)N[C@H](C(=O)N[C@@H](CC(N)=O)C(=O)N[C@@H](CO)C(=O)N[C@@H](Cc1ccc(O)cc1)C(=O)N[C@@H](CCCNC(=N)N)C(=O)N[C@@H](CCCCN)C(=O)N[C@H](C(=O)N[C@@H](CC(C)C)C(=O)NCC(=O)N[C@@H](CCC(N)=O)C(=O)N[C@@H](CC(C)C)C(=O)N[C@@H](CO)C(=O)N[C@@H](C)C(=O)N[C@@H](CCCNC(=N)N)C(=O)N[C@@H](CCCCN)C(=O)N[C@@H](CC(C)C)C(=O)N[C@@H](CC(C)C)C(=O)N[C@@H](CCC(N)=O)C(=O)N[C@@H](CC(=O)O)C(=O)N[C@H](C(=O)N[C@@H](CCSC)C(=O)N[C@@H](CO)C(=O)N[C@@H](CCCNC(=N)N)C(=O)N[C@@H](CCC(N)=O)C(=O)N[C@@H](CCC(N)=O)C(=O)NCC(=O)N[C@@H](CCC(=O)O)C(=O)N[C@@H](CO)C(=O)N[C@@H](CC(N)=O)C(=O)N[C@@H](CCC(N)=O)C(=O)N[C@@H](CCC(=O)O)C(=O)N[C@@H](CCCNC(=N)N)C(=O)NCC(=O)N[C@@H](C)C(=O)O)[C@@H](C)CC)C(C)C)[C@@H](C)O [Synthetic PGRF (1-40), PGRF (1-40)]
[1]; 0.01 μg i.v., +5 min
  serum ir-GH: 284 ± 20 nanograms/ml
[1]; 0.01 μg i.v., +10 min
  serum ir-GH: 238 ± 51 nanograms/ml
[1]; 0.01 μg i.v., +15 min
  serum ir-GH: 201 ± 47 nanograms/ml
[1]; 0.01 μg i.v., +30 min
  serum ir-GH: 261 ± 50 nanograms/ml
[1]; 0.01 μg i.v., +60 min
  serum ir-GH: 299 ± 25 nanograms/ml
[1]; 0.01 μg i.v., -1 min (before injection)
  serum ir-GH: 173 ± 23 nanograms/ml
[1]; 0.1 μg i.v., +5 min
  serum ir-GH: 694 ± 246 nanograms/ml
[1]; 0.1 μg i.v., +10 min
  serum ir-GH: 582 ± 290 nanograms/ml
[1]; 0.1 μg i.v., +15 min
  serum ir-GH: 758 ± 562 nanograms/ml
[1]; 0.1 μg i.v., +30 min
  serum ir-GH: 280 ± 70 nanograms/ml
[1]; 0.1 μg i.v., +60 min
  serum ir-GH: 424 ± 129 nanograms/ml
[1]; 0.1 μg i.v., -1 min (before injection)
  serum ir-GH: 276 ± 126 nanograms/ml
[1]; 1.0 μg i.v., +5 min
  serum ir-GH: 4551 ± 1825 nanograms/ml
[1]; 1.0 μg i.v., +10 min
  serum ir-GH: 1748 ± 564 nanograms/ml
[1]; 1.0 μg i.v., +15 min
  serum ir-GH: 730 ± 158 nanograms/ml
[1]; 1.0 μg i.v., +30 min
  serum ir-GH: 234 ± 53 nanograms/ml
[1]; 1.0 μg i.v., +60 min
  serum ir-GH: 267 ± 129 nanograms/ml
[1]; 1.0 μg i.v., -1 min (before injection)
  serum ir-GH: 142 ± 24 nanograms/ml
[1]; 10.0 μg i.v., +5 min
  serum ir-GH: 7077 ± 1943 nanograms/ml
[1]; 10.0 μg i.v., +10 min
  serum ir-GH: 4676 ± 585 nanograms/ml
[1]; 10.0 μg i.v., +15 min
  serum ir-GH: 2464 ± 378 nanograms/ml
[1]; 10.0 μg i.v., +30 min
  serum ir-GH: 616 ± 112 nanograms/ml
[1]; 10.0 μg i.v., +60 min
  serum ir-GH: 223 ± 26 nanograms/ml
[1]; 10.0 μg i.v., -1 min (before injection)
  serum ir-GH: 234 ± 76 nanograms/ml
[2]; GH release in vitro, Example VII
  ED50: about 113 picograms
[2]; 10 fmoles
  GH secretion in vitro % of controls: 269 ± 20 % of controls
[2]; 100 fmoles
  GH secretion in vitro % of controls: 701 ± 6 % of controls
[2]; 1000 fmoles
  GH secretion in vitro % of controls: 990 ± 42 % of controls
[2]; equimolar ratios, Example VII
  biological activity compared with the native peptide: has the full biological activity of the native peptide

## CC[C@H](C)[C@H](NC(=O)[C@H](C)NC(=O)[C@H](CC(=O)O)NC(=O)[C@H](C)NC(=O)[C@@H](N)Cc1ccc(O)cc1)C(=O)N[C@@H](Cc1ccccc1)C(=O)N[C@H](C(=O)N[C@@H](CC(N)=O)C(=O)N[C@@H](CO)C(=O)N[C@@H](Cc1ccc(O)cc1)C(=O)N[C@@H](CCCNC(=N)N)C(=O)N[C@@H](CCCCN)C(=O)N[C@H](C(=O)N[C@@H](CC(C)C)C(=O)NCC(=O)N[C@@H](CCC(N)=O)C(=O)N[C@@H](CC(C)C)C(=O)N[C@@H](CO)C(=O)N[C@@H](C)C(=O)N[C@@H](CCCNC(=N)N)C(=O)N[C@@H](CCCCN)C(=O)N[C@@H](CC(C)C)C(=O)N[C@@H](CC(C)C)C(=O)N[C@@H](CCC(N)=O)C(=O)N[C@@H](CC(=O)O)C(=O)N[C@H](C(=O)N[C@@H](CCSC)C(=O)N[C@@H](CO)C(=O)N[C@@H](CCCNC(=N)N)C(=O)N[C@@H](CCC(N)=O)C(=O)N[C@@H](CCC(N)=O)C(=O)NCC(=O)N[C@@H](CCC(=O)O)C(=O)N[C@@H](CO)C(=O)N[C@@H](CC(N)=O)C(=O)N[C@@H](CCC(N)=O)C(=O)N[C@@H](CCC(=O)O)C(=O)N[C@@H](CCCNC(=N)N)C(=O)NCC(=O)N[C@@H](C)C(=O)N[C@@H](CCCNC(=N)N)C(=O)N[C@@H](C)C(=O)N[C@@H](CCCNC(=N)N)C(=O)N[C@@H](CC(C)C)C(N)=O)[C@@H](C)CC)C(C)C)[C@@H](C)O [synthetic PGRF(1-44)-amide, PGRF(1-44)-amide]
[1]; compared with PGRF(1-40) in Table II
  GH-releasing activity when injected in laboratory animals (rats): shows the same type of GH-releasing activity as PGRF(1-40)
[2]
  potency compared with native PGRF(1-44) (further testing): substantially the same potency as native PGRF(1-44)

## CC[C@H](C)[C@H](NC(=O)[C@H](C)NC(=O)[C@H](CC(=O)O)NC(=O)[C@H](C)NC(=O)[C@@H](N)Cc1ccc(O)cc1)C(=O)N[C@@H](Cc1ccccc1)C(=O)N[C@H](C(=O)N[C@@H](CC(N)=O)C(=O)N[C@@H](CO)C(=O)N[C@@H](Cc1ccc(O)cc1)C(=O)N[C@@H](CCCNC(=N)N)C(=O)N[C@@H](CCCCN)C(=O)N[C@H](C(=O)N[C@@H](CC(C)C)C(=O)NCC(=O)N[C@@H](CCC(N)=O)C(=O)N[C@@H](CC(C)C)C(=O)N[C@@H](CO)C(=O)N[C@@H](C)C(=O)N[C@@H](CCCNC(=N)N)C(=O)N[C@@H](CCCCN)C(=O)N[C@@H](CC(C)C)C(=O)N[C@@H](CC(C)C)C(=O)N[C@@H](CCC(N)=O)C(=O)N[C@@H](CC(=O)O)C(=O)N[C@H](C(=O)N[C@@H](CCSC)C(=O)N[C@@H](CO)C(=O)N[C@@H](CCCNC(=N)N)C(=O)N[C@@H](CCC(N)=O)C(=O)N[C@@H](CCC(N)=O)C(=O)NCC(=O)N[C@@H](CCC(=O)O)C(=O)N[C@@H](CO)C(=O)N[C@@H](CC(N)=O)C(=O)N[C@@H](CCC(N)=O)C(=O)N[C@@H](CCC(=O)O)C(=O)N[C@@H](CCCNC(=N)N)C(=O)NCC(=O)N[C@@H](C)C(=O)N[C@@H](CCCNC(=N)N)C(=O)N[C@@H](C)C(=O)N[C@@H](CCCNC(=N)N)C(=O)N[C@@H](CC(C)C)C(=O)O)[C@@H](C)CC)C(C)C)[C@@H](C)O [synthetic PGRF(1-44)-free acid, PGRF(1-44) free acid]
[2]
  potency compared with native PGRF(1-44) (further testing): somewhat less potency than native PGRF(1-44)
